Reference: patent US7544773B2 (priority 2003, dated 2009)
No end group written: not given here.

Biological target: Caf1M-Caf1, Caf1M-(Caf1)2 and Caf1M-(Caf1)3 complexes (Yersinia pestis, UniProt P26948)
Sequence (P26948 22-170 limits assumed, one chain of several): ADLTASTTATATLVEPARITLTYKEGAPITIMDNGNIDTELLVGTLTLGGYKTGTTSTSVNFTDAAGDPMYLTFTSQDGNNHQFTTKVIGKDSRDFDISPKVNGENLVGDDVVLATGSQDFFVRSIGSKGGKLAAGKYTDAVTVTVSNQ

ATATLV
dissociation of the complexes to free Caf1M and Caf1: some dissociation | formation of high molecular weight complexes (polymerization): polymerization was completely inhibited
